Experimental data published in ChEMBL document CHEMBL1201862, “PubChem BioAssay data set” (2004).
Active and inactive are the calls of the source. Cut-off read from the data, not from the text of the source: actives have a measured IC50 and inactives only a lower limit.

Biological target: Envelope glycoprotein gp160 (Human immunodeficiency virus 1, UniProt Q6QLK5)
Assay: cell-free HIV fusion peptide-binding blockers – biochemical, uHTS, fluorescence dequenching, […] (AID 1986)

Sequence of Envelope glycoprotein gp160 (Q6QLK5 whole entry, the tested form may be a part): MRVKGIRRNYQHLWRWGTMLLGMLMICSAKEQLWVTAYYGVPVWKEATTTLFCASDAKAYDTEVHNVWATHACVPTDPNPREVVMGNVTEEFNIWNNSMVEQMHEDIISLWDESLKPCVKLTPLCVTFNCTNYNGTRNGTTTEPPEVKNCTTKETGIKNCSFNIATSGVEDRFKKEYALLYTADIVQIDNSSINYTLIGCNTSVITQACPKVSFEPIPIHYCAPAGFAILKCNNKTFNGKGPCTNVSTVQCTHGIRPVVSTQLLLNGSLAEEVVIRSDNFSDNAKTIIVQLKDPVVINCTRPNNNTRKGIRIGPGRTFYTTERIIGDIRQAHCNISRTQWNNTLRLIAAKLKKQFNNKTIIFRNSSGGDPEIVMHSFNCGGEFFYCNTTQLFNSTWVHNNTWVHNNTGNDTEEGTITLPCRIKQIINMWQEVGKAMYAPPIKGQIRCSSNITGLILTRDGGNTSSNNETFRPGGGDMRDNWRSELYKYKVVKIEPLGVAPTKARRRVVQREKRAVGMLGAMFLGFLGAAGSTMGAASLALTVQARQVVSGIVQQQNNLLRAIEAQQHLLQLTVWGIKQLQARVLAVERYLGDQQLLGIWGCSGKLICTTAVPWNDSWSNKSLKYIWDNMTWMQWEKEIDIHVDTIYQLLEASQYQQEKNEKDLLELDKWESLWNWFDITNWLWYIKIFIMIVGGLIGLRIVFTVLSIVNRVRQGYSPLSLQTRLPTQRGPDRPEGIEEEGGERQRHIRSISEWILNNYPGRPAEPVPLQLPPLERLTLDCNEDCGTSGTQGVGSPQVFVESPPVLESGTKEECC

CC1=CN2C(=N)/C(=C/c3cc(Cl)c(O)c(Cl)c3)C(=O)N=C2S1
IC50: 26.2 µM (active)

O=C(NN1C(=O)/C(=C\c2ccc(O)c([N+](=O)[O-])c2)SC1=S)c1ccccc1Cl
IC50: 24.9 µM (active)

COc1cc(/C=C2/C(=O)NN(c3ccc(Cl)cc3)C2=O)cc(Br)c1O
IC50: 15.5 µM (active)
